From patent US20120165331A1, “Di/tri-aza-spiro-C9-C11alkanes” (priority 2010, published 2012)

Legend:
human orexin 2 receptor = biological target: T1, human orexin 2 receptor (Homo sapiens, UniProt O43614); test: Calcium accumulation in cells (FLIPR), antagonism of orexin A, human orexin 2 receptor; assay type: cell-based; settings: for inhibition at 10 µM: measured at a concentration of 10 μM of compound, read-out: FLIPR hOx2R % inhibition; for Ki: calcium accumulation, antagonism of orexin A, Cheng-Prusoff corrected, read-out: FLIPR hOx2R Ki
T1 construct: expressed in transfected cells
T1 sequence (O43614 1-444): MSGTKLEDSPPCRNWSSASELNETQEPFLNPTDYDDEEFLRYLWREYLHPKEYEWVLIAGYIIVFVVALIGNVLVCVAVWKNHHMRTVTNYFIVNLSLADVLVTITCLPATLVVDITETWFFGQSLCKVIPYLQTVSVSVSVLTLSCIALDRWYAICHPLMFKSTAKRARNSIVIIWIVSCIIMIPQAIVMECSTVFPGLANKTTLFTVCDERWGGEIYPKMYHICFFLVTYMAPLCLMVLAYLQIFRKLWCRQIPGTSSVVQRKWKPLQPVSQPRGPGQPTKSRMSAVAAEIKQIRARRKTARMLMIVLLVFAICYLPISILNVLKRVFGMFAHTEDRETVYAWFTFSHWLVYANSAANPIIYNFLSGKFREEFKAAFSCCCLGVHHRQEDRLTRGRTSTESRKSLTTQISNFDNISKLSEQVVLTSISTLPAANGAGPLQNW
Experimental: (§1) Calcium Accumulation in Cells (FLIPR):
(§2) Cells expressing human orexin 1 or human orexin 2 receptors, were seeded at 8,000 cells/well in 384 well black-walled clear bottom, poly-D-lysine coated plates. After 24 h, the medium was removed and cells were washed once with phosphate buffered saline and serum-deprived overnight in assay buffer (130 mM NaCl, 5.4 mM KCl, 1.8 mM CaCl2, 0.8 mM MgSO4, 0.9 mM NaH2PO4, 25 mM glucose, 20 mM HEPES, pH 7.4) containing bovine serum albumin (1% w/v).
(§3) On the day of the experiment, the cells seeded in black plates were treated with assay buffer containing the Ca^2+ sensitive fluorescent dye Fluo-4-AM (2 μM), and probenecid (0.1 mM). After 1 h plates were washed twice with, and resuspended in, assay buffer containing probenecid (0.1 mM) using a multi plate washer. The plates were placed into a FLIPR II (Fluorometric Imaging Plate Reader, Molecular Devices, Sunnyvale, Calif., USA) and baseline fluorescence (fluorescence light units, FLU) was measured (5 measurements, 2 S each; laser excitation 488 nm at 0.6-1 W, CCD camera exposure 0.4 s) before addition of buffer alone (basal) or containing test compounds (either compound of formula I alone, agonist alone or agonist in the presence of various concentrations of compounds of formula I). Fluorescence measurements were then continued every 1 S for 120 S followed by every 4 S for 240 S.
(§4) The measurements were typically made in two sequences:
(§5) Compounds of formula I were tested usually in a concentration range from 10^−9 M to 10^−5 M.
(§6) In the second round, performed one hour later (to allow for equilibration), Orexin A was tested either in the absence (calibration curves, Orexin A agonist controls) or in the presence of compounds of formula Ito determine antagonism.
(§7) Inhibition data is expressed in Table 1 as Kd [μM], converted by the Cheng and Prusoff correction (Kd=IC50/1+(L/EC50)), where IC50 is the 50% inhibition value determined in concentration response inhibition curves, EC50 is the half maximal activation concentration determined for orexin A in concentration response curves and L is the concentration of orexin A used in inhibition experiments performed in with a submaximal concentration of orexin A in the presence of up to 8 increasing concentrations of compound of formula I. Inhibition data is also expressed in Table 1 as % inhibition value measured at a concentration of 10 μM of selected compounds of formula I.

human orexin 1 receptor = biological target: T2, human orexin 1 receptor (Homo sapiens, UniProt O43613); test: Calcium accumulation in cells (FLIPR), antagonism of orexin A, human orexin 1 receptor; assay type: cell-based; settings: for inhibition at 10 µM: measured at a concentration of 10 μM of compound, read-out: FLIPR hOx1R % inhibition; for Ki: calcium accumulation, antagonism of orexin A, Cheng-Prusoff corrected, read-out: FLIPR hOx1R Ki
T2 construct: expressed in transfected cells
T2 sequence (O43613 1-425): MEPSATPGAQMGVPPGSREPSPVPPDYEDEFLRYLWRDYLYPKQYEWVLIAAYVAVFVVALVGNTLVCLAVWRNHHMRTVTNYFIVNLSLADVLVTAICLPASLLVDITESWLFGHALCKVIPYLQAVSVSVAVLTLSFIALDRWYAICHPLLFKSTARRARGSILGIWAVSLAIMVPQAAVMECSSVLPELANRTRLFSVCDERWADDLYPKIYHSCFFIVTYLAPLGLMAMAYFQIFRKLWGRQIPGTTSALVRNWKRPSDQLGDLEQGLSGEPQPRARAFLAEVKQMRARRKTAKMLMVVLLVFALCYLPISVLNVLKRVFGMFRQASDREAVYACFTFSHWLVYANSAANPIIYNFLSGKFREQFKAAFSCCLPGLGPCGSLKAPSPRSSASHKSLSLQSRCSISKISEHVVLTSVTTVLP
Experimental: as §1, §2, §3, §4, §5, §6, §7

Cc1cc(C)nc(N2CCC3(CC2)NCCN(Cc2nn(C)cc2-c2ccc(C#N)cc2)C3=O)n1 [Example 1.45, 4-(3-((9-(4,6-Dimethylpyrimidin-2-yl)-5-oxo-1,4,9-triazaspiro[5.5]undecan-4-yl)methyl)-1-methyl-1H-pyrazol-4-yl)benzonitrile]
inhibition at 10 µM (human orexin 2 receptor): 45%
inhibition at 10 µM (human orexin 1 receptor): 21%

CNC(=O)c1cccc(-c2cn(C)nc2CN2CCNC3(CCN(c4nc(C)cc(C)n4)CC3)C2=O)c1 [Example 1.49, 3-(3-((9-(4,6-Dimethylpyrimidin-2-yl)-5-oxo-1,4,9-triazaspiro[5.5]undecan-4-yl)methyl)-1-methyl-1H-pyrazol-4-yl)-N-methylbenzamide]
inhibition at 10 µM (human orexin 2 receptor): 38%
inhibition at 10 µM (human orexin 1 receptor): 20%

Cc1cc(C)nc(N2CCC3(CC2)NCCN(Cc2n[nH]c4ccccc24)C3=O)n1 [Example 1.50, 4-((1H-Indazol-3-yl)methyl)-9-(4,6-dimethylpyrimidin-2-yl)-1,4,9-triazaspiro[5.5] undecan-5-one]
Ki (human orexin 2 receptor): 86 nM
Ki (human orexin 1 receptor): 1180 nM

COCc1ccc(-c2cn(C)nc2CN2CCNC3(CCN(c4nc(C)cc(C)n4)CC3)C2=O)cc1 [Example 1.51, 9-(4,6-Dimethyl-pyrimidin-2-yl)-4-((4-(4-(methoxymethyl)phenyl)-1-methyl-1H-pyrazol-3-yl)methyl)-1,4,9-triazaspiro[5.5] undecan-5-one]
Ki (human orexin 2 receptor): 1240 nM
inhibition at 10 µM (human orexin 1 receptor): < 10%

COc1cccc(-c2cn(C)nc2CN2CCNC3(CCN(c4nc(C)cc(C)n4)CC3)C2=O)n1 [Example 1.54, 9-(4,6-Dimethyl-pyrimidin-2-yl)-4-((4-(6-methoxypyridin-2-yl)-1-methyl-1H-pyrazol-3-yl)methyl)-1,4,9-triazaspiro[5.5] undecan-5-one]
inhibition at 10 µM (human orexin 2 receptor): 32%
inhibition at 10 µM (human orexin 1 receptor): 15%

Cc1cc(C)nc(N2CCC3(CC2)NCCN(Cc2nn(C)cc2-c2cccc(-n4cccn4)c2)C3=O)n1 [Example 1.57, 4-((4-(3-(1H-Pyrazol-1-yl)phenyl)-1-methyl-1H-pyrazol-3-yl)methyl)-9-(4,6-dimethyl-pyrimidin-2-yl)-1,4,9-triazaspiro[5.5] undecan-5-one]
Ki (human orexin 2 receptor): 175 nM
Ki (human orexin 1 receptor): 2670 nM

Cc1cc(C)nc(N2CCC3(CC2)NCCN(Cc2nn(C)cc2-c2cccc(N(C)C)c2)C3=O)n1 [Example 1.58]
Ki (human orexin 2 receptor): 458 nM
inhibition at 10 µM (human orexin 1 receptor): 17%

Cc1cc(C)nc(N2CCC3(CC2)NCCN(Cc2nn(C)cc2-c2cccc(-c4nnc(C)o4)c2)C3=O)n1 [Example 1.59, 9-(4,6-Dimethyl-pyrimidin-2-yl)-4-((1-methyl-4-(3-(5-methyl-1,3,4-oxadiazol-2-yl)phenyl)-1H-pyrazol-3-yl)methyl)-1,4,9-triazaspiro[5.5] undecan-5-one]
Ki (human orexin 2 receptor): 252 nM
inhibition at 10 µM (human orexin 1 receptor): 37%

Cc1cc(C)nc(N2CCC3(CC2)NCCN(Cc2nn(C)cc2-c2cccc(-n4nc(C)cc4C)c2)C3=O)n1 [Example 1.60, 4-((4-(3-(3,5-Dimethyl-1H-pyrazol-1-yl)phenyl)-1-methyl-1H-pyrazol-3-yl)methyl)-9-(4,6-dimethylpyrimidin-2-yl)-1,4,9-triazaspiro[5.5] undecan-5-one]
inhibition at 10 µM (human orexin 2 receptor): 34%
inhibition at 10 µM (human orexin 1 receptor): 13%

Cc1cc(C)nc(N2CCC3(CC2)NCCN(Cc2nn(C)cc2-c2ccc4c(c2)OCCO4)C3=O)n1 [Example 1.61, 4-((4-(2,3-Dihydro-benzo[b][1,4]dioxin-6-yl)-1-methyl-1H-pyrazol-3-yl)methyl)-9-(4,6-dimethylpyrimidin-2-yl)-1,4,9-triazaspiro[5.5] undecan-5-one]
Ki (human orexin 2 receptor): 1.8 nM
Ki (human orexin 1 receptor): 836 nM

Cc1cc(C)nc(N2CCC3(CC2)NCCN(Cc2ccccc2-c2ncc(C)o2)C3=O)n1 [Example 1.64, 9-(4,6-dimethyl-pyrimidin-2-yl)-4-(2-(5-methyloxazol-2-yl)benzyl)-1,4,9-triazaspiro[5.5] undecan-5-one]
Ki (human orexin 2 receptor): 423 nM
inhibition at 10 µM (human orexin 1 receptor): 32%
